Data: paper PMC3923716 (PLoS Neglected Tropical Diseases, 2014)
Read-outs that look alike come from different tables or passages of the source.

Tests used:
B. pahangi Hsp90 = target: T1, B. pahangi Hsp90 (Brugia pahangi, UniProt O61998); assay: Competition FP assay (displacement of Cy3B-GA), B. pahangi lysate; format: binding
T1 construct: Adult worms of B. pahangi were obtained from infected jirds; from tissue; host or cells: whole adult B. pahangi worms, ground and lysed in HFB buffer
Experimental: Adult worms of B. pahangi were obtained from infected jirds after 3–4 months, exactly as described previously and were frozen in liquid nitrogen, ground in a pestle and mortar to a fine powder and re-suspended in an appropriate volume of HFB assay buffer (20 mM HEPES, pH 7.3, 50 mM KCl, 5 mM MgCl2, 20 mM Na2MoO4, 1% NP40). Protein concentrations were estimated using the BioRad protein assay. At this point lysates were freeze-dried for shipping to the USA.
(§1) The FP assay was set up essentially as described previously, [25]. […] The equilibrium binding of Cy3B-GA and recombinant human Hsp90α (Enzo Life Sciences, Farmingdale, NY USA) or parasite lysate was determined by creating a two-fold dilution series of protein/extract for an eleven-point curve with the first column containing no protein. […] All FP values are expressed in millipolarization (mP) units with the mP value of free Cy3B-GA probe set to 50. Equilibrium binding constants were determined by nonlinear regression using a one-site binding model (GraphPad Prism software).
(§2) The relative binding affinities of inhibitors to human or parasite-derived Hsp90 was determined using competitive FP binding assays. […] For parasite-derived Hsp90, an amount of parasite lysate resulting in 50% of maximal Cy3B-GA binding was used. […] Stock solutions of each compound were prepared in DMSO at a concentration of 10 mM and 3-fold serial dilutions prepared in DMSO for eleven point curves. […] The final concentration of Cy3B-GA was 6 nM and the final DMSO concentration in all wells was 0.5%. Free Cy3B-GA (mP set to 50) and buffer only (background) wells were included as controls on each plate. Plates were incubated at 8°C with gentle shaking for 20 h.

B. malayi Hsp90 = B. malayi Hsp90 (Brugia malayi, UniProt A0A0H5S7Y7); assay: Competition FP assay (displacement of Cy3B-GA), B. malayi lysate; format: binding
Experimental: as §1, §2

[1] = test system: B. pahangi Mf (microfilariae); assay: Mf viability in vitro; format: cell-based, Brugia pahangi; settings: for % death by day 7: Mf; for effect of lower concentrations on Mf: concentrations below the killing concentration; for condition of Mf: 250 nM, day 7
Experimental: As adult Brugia worms are limited in numbers, initial experiments assessed the effect of each drug on Mf viability. Mf were purified from infected animals essentially as described previously. In brief, following lavage of the peritoneal cavity of an infected animal with Hanks Balanced Salt Solution (HBSS) pre-warmed to 37°C, Mf were collected by centrifugation and then purified from host cells by centrifugation through lymphoprep (Sigma). This procedure was repeated twice. Mf were collected from the pellet, washed twice in HBSS and once in worm culture medium (WCM) which comprised RPMI 1640, (Invitrogen Cat No: 52400), containing 5% heat inactivated fetal calf serum, 1% glucose, 100 units/ml penicillin and 100 µg/ml streptomycin (all Invitrogen). Mf were then dispensed into the wells of a 24-well plate to give approximately 200 Mf in 2.0 ml, using a single well for each drug concentration. All procedures were carried out using aseptic techniques. The five novel compounds, plus GA and medium alone controls, were tested three times against Mf over the full range of concentrations.

adult female B. pahangi = assay: Adult female worm assay in vitro (Mf output and adult viability), continuous exposure; format: cell-based, Brugia pahangi; settings: initial screen 2.0 µM to 100 nM, adult female worms
Experimental: For adult worm assays, adult female B. pahangi, 3–4 months old, were incubated individually in 2.0 ml of WCM overnight in 24-well plates and pre-screened for Mf production. […] For the drug experiments, six female worms of B. pahangi for each concentration of drug were cultured individually in 24-well plates in 2.0 ml of WCM containing drug, or carrier alone (DMSO) at a concentration equal to that in the highest concentration of drug. In some experiments, GA was used as a positive control. Initially, all five compounds were tested over selected concentrations starting at 2 µM to 100 nM (see Results for details). For Hsp90 inhibitors, Mf output by individual female worms is a sensitive indicator of adult worm viability and, in most experiments, was assessed at 72 h. In addition, adult worms were examined microscopically on a daily basis for 7–10 days to determine whether lower concentrations of drugs had any effects over a longer period of incubation. Results are expressed as mean Mf output ± SD over a 72 h period. Statistical significance between groups was calculated using the Mann Whitney test with P values<0.05 being considered significant.

Brugia Hsp90 = assay: Competition FP assay, Brugia Hsp90 (species not separated); format: binding
Experimental: as §1, §2

adult B. malayi worms = settings: 48 h of drug exposure
Description: (§3) Plates were maintained for up to 10 days and the condition of adult parasites noted at regular intervals. In one experiment the effect of GA on Mf output by adult B. malayi worms was compared with B. pahangi. B. malayi worms were kindly provided by Prof. R. Maizels (University of Edinburgh). […] In all in vitro experiments, plates were viewed daily and the motility and condition of the parasites noted by two independent observers, of whom one was unaware of the contents of the well.

adult B. pahangi worms = settings: 48 h of drug exposure
Description: as §3

recombinant human Hsp90α = target: T2, recombinant human Hsp90α (Homo sapiens, UniProt P07900); assay: Competition FP assay (displacement of Cy3B-GA), human Hsp90α; format: binding
T2 construct: purchased Enzo Life Sciences
Experimental: as §1
as §2, with “Free Cy3B-GA (mP set to 50) and buffer only (background) wells were included as controls on each plate.” left out

[2] = FP assay, best fit (95% confidence intervals), read-out: B. pahangi IC50
[3] = best fit (95% confidence intervals), read-out: B. malayi IC50
[4] = read-out: B. malayi IC50, best fit (95% confidence intervals)

IC50 (B. pahangi Hsp90; [2]) [nM]	IC50 (B. malayi Hsp90; [3]) [nM]	SMILES	IC50 (B. malayi Hsp90; [4]) [nM]	concentration with significant effect on Mf output (adult female B. pahangi) [nM]	other results
8	2.5	C=CCNC1=C2C[C@@H](C)C[C@H](OC)[C@H](O)[C@@H](C)/C=C(\C)[C@H](OC(N)=O)[C@@H](OC)/C=C\C=C(/C)C(=O)NC(=CC1=O)C2=O [17-AAG]			
240	330	CCc1cc(-c2n[nH]c(C)c2-c2ccc3c(c2)OCCO3)c(O)cc1O [CCT018159]			
17	27	CC(C)NCCCn1c(Sc2cc3c(cc2I)OCO3)nc2c(N)ncnc21 [PU-H71]			
10	11	CC1(C)CC(=O)c2c(C(F)(F)F)nn(-c3ccc(C(N)=O)c(N[C@H]4CCC[C@@H]4O)c3)c2C1 [SNX-9203]		≤ 100	IC50 (recombinant human Hsp90α; FP assay, best fit (95% confidence intervals), read-out: HsHsp90α IC50): 3.8 nM; condition of Mf [1]: most worms were alive but were much less motile than controls; % death by day 7 ([1]; 500 nM): 90%
11	14	CCNC(=O)c1[nH]nc(-c2cc(Cl)c(O)cc2O)c1-c1ccc(OC)cc1 [VER-49009]			
0.54	1.2	CCNC(=O)c1noc(-c2cc(Cl)c(O)cc2O)c1-c1ccc(OC)cc1 [VER-50589]			

Second part, the compound before the results:

SMILES	IC50 (B. pahangi Hsp90; [2]) [nM]	IC50 (B. malayi Hsp90; [3]) [nM]	IC50 (B. malayi Hsp90; [4]) [nM]	concentration with significant effect on Mf output (adult female B. pahangi) [nM]	other results
COc1c(C)cnc(Cn2cnc3c(Cl)nc(N)nc32)c1C [BIIB021]			14	2000	IC50 (B. pahangi Hsp90): 16 nM; concentration active on Mf ([1]; 7 days, tested 4.0 µM to 0.976 nM): 4.0 µM; % death by day 7 ([1]; 4.0 µM): 100%; effect of lower concentrations on Mf ([1]; 7 days): affected worm motility but did not kill the worms
Oc1cc(O)c(-c2noc3ccc(NCCN4CCOCC4)cc23)cc1Cl [CAY10607]	1.6	16			higher affinity for B. pahangi Hsp90 compared to B. malayi Hsp90 (Brugia Hsp90): 10 fold
COC1=C2C[C@@H](C)C[C@H](OC)[C@H](O)[C@@H](C)/C=C(\C)[C@H](OC(N)=O)[C@@H](OC)/C=C\C=C(/C)C(=O)NC(=CC1=O)C2=O [Geldanamycin]			12		% death by day 7 ([1]; 31.25 nM, listed as GA): 90%; reduction in Mf output (adult B. malayi worms; 1.0 µM): 74%; reduction in Mf output (adult B. malayi worms; 2.0 µM): 93%; reduction in Mf output (adult B. pahangi worms; 1.0 µM): 78%; reduction in Mf output (adult B. pahangi worms; 2.0 µM): 92%
CCNC(=O)c1cc2c(-c3cc(OCCN4CCCC4)c(Cl)cc3Cl)nc(N)nc2s1 [NVP-BEP800]			8.7	≤ 100	IC50 (recombinant human Hsp90α): 13 nM; IC50 (B. pahangi Hsp90): 6.9 nM; IC50 (Brugia Hsp90; read-out: IC50 for binding to Brugia Hsp90): ~7 nM; EC50 ([1]; Brugia pahangi, 168 h, read-out: EC50 against Mf viability): ~250 nM; % death by day 7 ([1]; 500 nM): majority of Mf; effect of lower concentrations on Mf ([1]; 7 days): affected Mf motility but did not kill substantial numbers of worms
CC1(C)CC(=O)c2c(C(F)(F)F)nn(-c3ccc(C(N)=O)c(N[C@H]4CC[C@H](O)CC4)c3)c2C1 [SNX-2112]			20	500	IC50 (B. pahangi Hsp90): 15 nM; condition of Mf [1]: very sluggish but still alive
